According to patent US8481551B2, “Gyrase and topoisomerase IV inhibitors” (Vertex Pharmaceuticals Incorporated, priority 2011, dated 2013):
Where a name gives a salt, the structure may show the parent alone.

How the values were obtained:
[1] = tested on: Staphlococcus epidermidis; experiment: Gyrase MIC, microdilution broth method (Protocol 1); format: cell-based, Staphylococcus epidermidis; settings: 35 isolates tested; for MIC90: Staphylococcus epidermidis
[2] = tested on: Bacillus cereus; experiment: as above; format: cell-based
[3] = tested on: Haemophilus influenzae; experiment: Gyrase MIC against Gram negatives, microdilution broth method (Protocol 2); format: cell-based; settings: for MIC90 / MIC Range: Haemophilus influenzae, 55 isolates tested
[4] = tested on: Escherichia coli; experiment: as above; format: cell-based; settings: for MIC90: 12 isolates tested
[5] = tested on: Klebsiella pneumoniae; experiment: as above; format: cell-based; settings: for MIC90: Klebsiella pneumoniae, 12 isolates tested
[6] = tested on: Acinetobacter baumannii; experiment: as above; format: cell-based; settings: for MIC90: Acinetobacter baumannii, 12 isolates tested
[7] = tested on: Proteus mirabilis; experiment: as above; format: cell-based; settings: 12 isolates tested
[8] = tested on: Fusobacterium spp.; experiment: Gyrase MIC, agar dilution method (Protocol 3); format: cell-based; settings: 16 isolates tested
[9] = tested on: Peptostreptococcus spp.; experiment: Gyrase MIC, agar dilution method (Protocol 3); format: cell-based; settings: 11 isolates tested
[10] = tested on: Prevotella spp.; experiment: Gyrase MIC, agar dilution method (Protocol 3); format: cell-based; settings: 13 isolates tested
[11] = Seven-day oral (gavage) toxicity and toxicokinetics study in rats; format: in vivo, Crl:CD(SD) rats; settings: for Mean food consumption: Compound 13 once daily 100 or 200 mg/kg, Compound 23A twice daily 300 mg/kg, not considered adverse; for adverse observations / mean body weight: 7 days oral gavage; for histopathological findings: any dose regimen; for exposures for different dosage levels: toxicokinetics; for NOEL (No-Observable-Effect-Level) / dose levels without adverse toxicity: male, 7 days
From the text: Crl:CD(SD) rats were obtained from Charles River Laboratories of Stone Ridge, N.Y. The animals were laboratory bred and experimentally naïve. Rats were chosen because they are a species that is commonly used for nonclinical toxicity evaluations.
Forty rats (20 noncannulated males and 20 males with jugular vein cannulas) were ordered. From these animals, 15 noncannulated males and 15 cannulated males were used. Animals were as uniform in age as possible. The rats were prepubertal to young adult, approximately 9 weeks of age at initiation of dosing. Their supplier-calculated birth date was retained in the study records. The weight range for the animals at the time of allocation to groups was 218.5-306.3 g.
Animals received the test article or vehicle by oral gavage for 7 consecutive days and were terminated the day following completion of dosing. The first day of dosing was designated as Day 1 of the study. The animals were evaluated for changes in clinical signs, body weight, and other parameters as described below.
The vehicle and test article were administered by oral gavage once daily for 7 consecutive days at a dose volume of 10 mL/kg body weight for Group A and Groups B-D, respectively. The test article and vehicle were administered by oral gavage twice daily, approximately 8 hours apart, for 7 consecutive days at a dose volume of 10 mL/kg body weight for Group E and Group F, respectively. The actual volume administered to each animal was calculated and adjusted based on the most recent body weight of each animal.
The postdosing observations made during treatment occurred at the following times based on Cmax/Tmax for the two compounds from previous studies:
Prior to start of dosing, body weights were measured for randomization on Day 1. During the treatment, body weights were measured on Day 1 and Day 7. In addition, fasted body weights were measured prior to necropsy for calculation of organ/body weight ratios.
Throughout the study, food consumption was measured daily starting 3 days prior to start of dosing.
Blood samples for evaluation of hematology, coagulation, and serum chemistry parameters were collected from all animals from the retro-orbital plexus (under CO2/O2 anesthesia, for the main study animals) or jugular vein cannula (for the toxicokinetic animals) prior to necropsy. Due to residual heparin used to keep the cannulas patent for the toxicokinetic animals, coagulation samples from these rats, were not able to be analyzed. The animals were fasted overnight prior to blood collection. On the day of blood collection for clinical pathology analyses, the animals were not necropsied until after the blood was collected and the samples judged to be acceptable by the clinical pathology group.
An appropriate amount of blood was collected in EDTA-containing tubes. The whole blood samples were analyzed for the parameters indicated below in Table 11.
An appropriate amount of blood was collected in tubes containing sodium citrate and then centrifuged to obtain plasma for the determination of prothrombin time (PT) and activated partial thromboplastin time (APTT).
An appropriate amount of blood was collected in tubes without anticoagulant. The sample was allowed to clot and then was centrifuged to obtain serum. The serum was analyzed for the parameters indicated below in Table 12.
On the 1st and 7th day of dosing, blood samples (approximately 0.5 mL/sample) were collected from the jugular vein cannula for all toxicokinetic animals at the timepoints listed below into K3EDTA-containing tubes. […] Prior to each collection, a small sample of blood (with heparin blocking solution) was removed from the cannula and discarded. A new syringe was placed on the cannula, and the protocol-required sample was taken. The syringe with the blood sample was removed, and a new syringe with saline attached to the cannula. Blood volume was replaced with an equal volume of saline and then blocking solution placed in the cannula. […]

[12] = tested on: Enterococcus faecium; experiment: Gyrase MIC, microdilution broth method (Protocol 1); settings: for MIC Range: 33 isolates tested
[13] = ATCC10987, Bacillus cereus ATCC 10987
[14] = ATCC14579, Bacillus cereus ATCC 14579
[15] = ATCC49247, Haemophilus influenzae ATCC 49247
[16] = Haemophilus influenzae Rd0894 (AcrA-)
[17] = ATCC25922, Escherichia coli ATCC 25922
[18] = ATCC700603, Klebsiella pneumoniae ATCC 700603
[19] = ATCCBAA1705, Klebsiella pneumoniae ATCC BAA-1705
[20] = ATCC19606, Acinetobacter baumannii ATCC 19606
[21] = ATCCBAA1710, Acinetobacter baumannii ATCC BAA-1710
[22] = ATCC49624, Enterococcus faecium ATCC 49624, Protocol 1
[23] = ATCC49624, Enterococcus faecium ATCC 49624 with Laked Horse Blood, Protocol 1
[24] = 300 mg/kg twice a day, compared to controls treated twice a day

**Q.** Which results are given for `CCNC(=O)Nc1nc2cc(-c3cnc(C(C)(C)O)nc3)cc([C@H]3CCCO3)c2[nH]1` [Compound 13, methanesulfonic acid salt of 1-ethyl-3-[5-[2-(1-hydroxy-1-methyl-ethyl)pyrimidin-5-yl]-7-[(2R)-tetrahydrofuran-2-yl]-1H-benzimidazol-2-yl]urea]?
**A.** MIC Range [1]: 0.03 to 0.25 µg/mL; MIC90 [1]: 0.12 µg/mL; MIC [2, 13]: 0.5 µg/mL; MIC [2, 14]: 0.5 µg/mL; MIC [3, 15]: 1 µg/mL; MIC [3, 16]: 0.14 µg/mL; MIC90 [3]: 2 µg/mL; MIC Range [3]: 0.25 to 8 µg/mL; MIC90 [4]: > 8 µg/mL; MIC [4, 17]: 16 µg/mL; MIC ([4]; Escherichia coli AG100 WT): > 16 µg/mL; MIC ([4]; Escherichia coli AG100 tolC): 0.11 µg/mL; MIC ([4]; Escherichia coli CHE30): > 16 µg/mL; MIC ([4]; Escherichia coli CHE30 tolC): 0.5 µg/mL; MIC ([4]; Escherichia coli MC4100): > 16 µg/mL; MIC ([4]; Escherichia coli MC4100 tolC): 1 µg/mL; MIC [5, 18]: > 16 µg/mL; MIC [5, 19]: > 16 µg/mL; MIC90 [5]: > 8 µg/mL; MIC [6, 20]: > 16 µg/mL; MIC [6, 21]: > 16 µg/mL; MIC90 [6]: > 8 µg/mL; MIC90 [7]: > 8 µg/mL; MIC90 [8]: 2 µg/mL; MIC Range [8]: 1 to 4 µg/mL; MIC90 [9]: > 16 µg/mL; MIC90 [10]: > 16 µg/mL; Mean food consumption [11]: reduced during different intervals of the study; AUC at 7 day ([11]; Crl:CD(SD), rat, in vivo, male rats, 200 mg/kg once a day for 7 days, oral gavage): 844 µg·h/mL; adverse observations / mean body weight ([11]; male rats): No adverse observations or effects on mean body weight; histopathological findings ([11]; male rats): No test article-related histopathological findings; exposures for different dosage levels ([11]; male rats): dose related; NOEL (No-Observable-Effect-Level) ([11]; Crl:CD(SD), rat, in vivo, po): 200 mg/kg; dose levels without adverse toxicity ([11]; Crl:CD(SD), rat, in vivo, po): up to 200 mg/kg/day; MIC90 [12]: 0.5 µg/mL; MIC Range ([12]; Protocol 1): 0.12 to 0.5 µg/mL; MIC [12, 22]: 0.25 µg/mL; MIC [12, 23]: 0.39 µg/mL

**Q.** With `CCNC(=O)Nc1nc2cc(-c3cnc(C(C)(C)O)nc3)c(F)c([C@H]3CCCO3)c2[nH]1` [Compound 23A, methanesulfonic acid salt of 1-ethyl-3-[6-fluoro-5-[2-(1-hydroxy-1-methyl-ethyl)pyrimidin-5-yl]-7-[(2R)-tetrahydrofuran-2-yl]-1H-benzimidazol-2-yl]urea] as the compound, how does the “MIC Range” value [1] read?
**A.** Its value is 0.008 to 0.03 µg/mL.

**Q.** And the MIC90 [1]?
**A.** Its MIC90 is 0.03 µg/mL.

**Q.** And the MIC [2, 13]?
**A.** The MIC was 0.031 µg/mL.

**Q.** And the MIC [2, 14]?
**A.** The MIC was 0.031 µg/mL.

**Q.** What about the MIC [3, 15] of the same compound?
**A.** Its MIC is 0.5 µg/mL.

**Q.** What about the MIC [3, 16] of the same compound?
**A.** Its MIC is 0.041 µg/mL.

**Q.** And the MIC90 [3]?
**A.** Its MIC90 is 1 µg/mL.

**Q.** What about the “MIC Range” value [3] of the same compound?
**A.** Its value is 0.06-2^ μg/ml.

**Q.** What about the MIC90 [4] of the same compound?
**A.** The MIC90 was over 8 µg/mL.

**Q.** What about the MIC [4, 17] of the same compound?
**A.** Its MIC is 12 µg/mL.

**Q.** And the MIC ([4]; Escherichia coli AG100 WT)?
**A.** Its MIC is 4 µg/mL.

**Q.** And the MIC ([4]; Escherichia coli AG100 tolC)?
**A.** The MIC was 0.063 µg/mL.

**Q.** And the MIC ([4]; Escherichia coli CHE30)?
**A.** Its MIC is 8 µg/mL.

**Q.** What about the MIC ([4]; Escherichia coli CHE30 tolC) of the same compound?
**A.** The MIC was 0.125 µg/mL.

**Q.** And the MIC ([4]; Escherichia coli MC4100)?
**A.** Its MIC is over 16 µg/mL.

**Q.** And the MIC ([4]; Escherichia coli MC4100 tolC)?
**A.** Its MIC is 0.25 µg/mL.

**Q.** And the MIC [5, 18]?
**A.** Its MIC is 16 µg/mL.

**Q.** What about the MIC [5, 19] of the same compound?
**A.** Its MIC is 12 µg/mL.

**Q.** And the MIC90 [5]?
**A.** The MIC90 was over 8 µg/mL.

**Q.** And the MIC [6, 20]?
**A.** Its MIC is 8 µg/mL.

**Q.** And the MIC [6, 21]?
**A.** Its MIC is 6 µg/mL.

**Q.** What about the MIC90 [6] of the same compound?
**A.** Its MIC90 is over 8 µg/mL.

**Q.** What about the MIC90 [7] of the same compound?
**A.** The MIC90 was over 8 µg/mL.

**Q.** What about the MIC90 [8] of the same compound?
**A.** The MIC90 was over 16 µg/mL.

**Q.** What about the MIC90 [9] of the same compound?
**A.** The MIC90 was over 16 µg/mL.

**Q.** And the MIC90 [10]?
**A.** Its MIC90 is 16 µg/mL.

**Q.** What about the “MIC Range” value [10] of the same compound?
**A.** Its value is 0.06 to 16 µg/mL.

**Q.** What about the “mean ALT” value [11, 24] of the same compound?
**A.** Its value is “statistically higher”.

**Q.** What about the “mean AST” value [11, 24] of the same compound?
**A.** Its value is “statistically higher”.

**Q.** And the Mean food consumption [11]?
**A.** The Mean food consumption was “reduced during different intervals of the study”.

**Q.** What about the NOAEL at 7 days ([11]; Crl:CD(SD), rat, in vivo, po, 300 mg/kg, male rats, twice a day for 7 days orally via gavage, read-out: NOAEL (No-Observable-Adverse-Effect-Level)) of the same compound?
**A.** Its NOAEL at 7 days is 300 mg/kg.

**Q.** And the AUC ([11]; Crl:CD(SD), rat, in vivo, male rats, 100 mg/kg once a day for 7 days, oral gavage)?
**A.** Its AUC is 82 µg·h/mL.

**Q.** And the AUC ([11]; Crl:CD(SD), rat, in vivo, male rats, 300 mg/kg twice a day for 7 days, oral gavage)?
**A.** Its AUC is 291 µg·h/mL.

**Q.** And the “adverse observations / mean body weight” value ([11]; male rats)?
**A.** The value was “No adverse observations or effects on mean body weight”.

**Q.** And the histopathological findings ([11]; male rats)?
**A.** The histopathological findings was “No test article-related histopathological findings”.

**Q.** And the “exposures for different dosage levels” value ([11]; male rats)?
**A.** Its value is “dose related”.

**Q.** What about the “NOEL (No-Observable-Effect-Level)” value ([11]; Crl:CD(SD), rat, in vivo, po) of the same compound?
**A.** Its value is 100 mg/kg.

**Q.** What about the “dose levels without adverse toxicity” value ([11]; Crl:CD(SD), rat, in vivo, po) of the same compound?
**A.** Its value is at most 600 mg/kg/day.

**Q.** What about the MIC90 [12] of the same compound?
**A.** Its MIC90 is 0.12 µg/mL.

**Q.** And the “MIC Range” value ([12]; Protocol 1)?
**A.** The value was 0.003 to 0.25 µg/mL.

**Q.** What about the MIC [12, 22] of the same compound?
**A.** Its MIC is 0.11 µg/mL.

**Q.** What about the MIC [12, 23] of the same compound?
**A.** The MIC was 0.11 µg/mL.
